# Test results reported in patent US7045661B2, “Crystalline forms of venlafaxine hydrochloride” (Ciba Specialty Chemicals Corporation, priority 2000, dated 2006).
# Assay: Relative thermodynamic stability of crystalline forms
# Assay type: physicochemical
# Details: compared with the previous known Form C
smiles,measurement,value
"COc1ccc(C(CN(C)C)C2(O)CCCCC2)cc1.Cl (stereo not shown) [Form B, 1-[(2-dimethylamino)-1-(4-methoxyphenyl)ethyl]cyclohexanol hydrochloride]",thermodynamic stability,thermodynamically more stable than the previous known Form C
